Results on three compounds are retold here after patent publication US11230688B2, “In vitro gastrointestinal model comprising lamina propria-derived cells” (EMULATE, Inc., priority 2016, dated 2022).

Where two headings read alike, the source gives them in different places.

The subject of data set [1] is Caco-2 epithelial cell layer. Put plainly: Gut-On-Chip barrier function (apparent permeability, Papp) with lamina propria-derived cells. The note with it: for Loss of barrier function: PAM2CSK4, overnight incubation.
Source text: (§1) This permeability assay method for adsorption across a gut wall, i.e. caco-2 cells in a gut-on-chip, measures the rate of transport of a test compound added to the basal side of the membrane, for example, inulin-FITC, across to the apical side. […] Conversely, adding a test compound to the apical side may also be used to measure transport to the basal side.
(§2) The Gut-On-Chip modeling of inflammation was used for testing bacterial antigen effects on barrier function and cytokine production. An exemplary bacteria antigen used was PAM2CSK4. […] PAM2CSK4 refers to a synthetic diacylated lipopeptide.
(§3) A co-culture configured as described herein was incubated in a device of the present inventions as described in FIG. 7.
(§4) Cultivation of Caco-2 cells in microfluidic device: Caco-2 cell monolayers were seeded as described herein. Basal regions of cells were exposed to medium under flow. […] Experimental procedure: Cells were used for this experiment between days 7 and 9 post seeding. Donor solutions (including a 100 μg/ml Inulin-FITC) were prepared, and solutions used in this experiment were prewarmed to 37° C. Inulin-FITC was used as an indicator for the determination of the monolayer integrity. […] Inulin-FITC method: 6 mM Inulin-FITC may be added into an apical region of a monolayer; and incubated for 1 hr. A standard curve may be prepared in a separate container, e.g. a 0.5 to 50 μM; HBSS blank containing 1 to 0.5% DMS0 is placed in wells; Aliquots of 200 μl are transferred from the separate container to a solid black plate; Aliquots of 50 μl are transferred from the device to a solid black plate containing 50 μl HBSS with 1-0.5% DMSO; Plates may be read in a fluorescent reader (Excitation/Emission wavelength 480/530 nm); LY rejection (Pc) values are calculated. V. Molecule transport assay: Transport of a molecule across the monolayer may also be determined; a test compound may be added at the apical region of the monolayer then removed from the apical and/or basal media then analyzed using LC-MS method for loss (e.g. apical region) or gain (e.g. basal region).
(§5) Microfluidic co-cultures with HUVEC cells in the bottom chamber, LPDCs from human non-inflamed regions of UC tissue biopsies, LPDCs from UC inflamed tissue biopsies, and samples with no LPDCs, were overlaid with Caco-2 epithelial cell layers.
Data set [2] has as its system microfluidic co-cultures of Caco-2 epithelial cells, HUVECs and LPDCs. Put plainly: Gut-On-Chip cytokine and chemokine production in co-cultures with lamina propria-derived cells. Format: cell-based, human. The method, then:
An exemplary bacteria antigen used was PAM2CSK4. […] PAM2CSK4 refers to a synthetic diacylated lipopeptide.
In order to determine contributory factors to the trends in permeability changes observed by combinations of prednisone treatments as in Example 5, cytokine and chemokine production were measured from media samples obtained from the microfluidic cultures as described in EXAMPLE 5. After an incubation time, media samples were extracted from the microfluidic device then used for determining amounts cytokine and chemokine produced, such as IL-6 and IL-9 in FIG. 18A-B; IL-8 and G-CSF in FIG. 19A-B; GM-CSF and MCP-1 in FIG. 20A-B; MIP1b and PDGF-AB/BB in FIG. 21A-B; and RANTES in FIG. 22. Amounts of cytokine and chemokine protein are measure in pg/ml (picogram per milliliter).

The subject of the next data set is Ulcerative Colitis. The note with it: cited from earlier work.
Data set [3] has as its system Intestine On-Chip with TH1 or TH9 populations. Put plainly: Intestine On-Chip seeded with plate-differentiated TH1 or TH9 cells, soluble reagents: cytokine production and gene expression. Format: cell-based, human. The note with it: for IL-10 secretion: TH9 populations. An excerpt: Experiments were designed to evaluate whether anti-CD3 and anti-CD28 co-stimulatory activation (soluble reagents) on chip would stimulate on chip T cells (previously activated and differentiated on plates) to continue functioning as activated effector cells within the chip tissue microenvironment. Further, TH1 and TH9 T cell populations underwent testing for an exacerbated response (either tissue alterations or changes in the characteristics of the T cell population) to a specific antigen stimulation, e.g. PAM2CSK4 (TLR2) bacterial agonist, with or without additional co-stimulation (i.e. using soluble reagents). Stimulation on-chip was done as a treatment on Day 7 of culture.
In this example, a TH1 cell population was produced from a population of mature/naive CD4+ T cells, as described in Example 7. This population of CD4+ T cells were co-stimulated with adhered CD3 and soluble CD28 antibodies, without added cytokines, for inducing differentiation of TH1 cells on plates. Unlike co-stimulation with adhered CD3 and soluble CD28 antibodies in the presence of TGFB IL-4, and IFNg cytokines which induced differentiation of TH9 cells, as described herein. Thus, in this example, purified CD4+ T cell populations were plated into tissue culture plates for activation and differentiation into one selected T cell subtype, e.g. TH1 in one plate, and TH9 in another plate.
In order to further test whether PBMCs activated and differentiated with soluble factors were capable of inducing inflammation on chips, pro-inflammatory cytokine production was compared between untreated, PAM2CSK4 treated with and without Tofacitinib. […]
Evaluation of the effects of T-cell activation on the Intestine On-Chip by perfusion of soluble immune activating factors (anti-CD3 and anti-CD2) to the media is shown in FIGS. 36A-B-39A-C. In particular, activated T-cell subsets were evaluated for disease-specific cytokine production.

Data set [4] has as its system Caco-2 epithelial cell layer.
Source text: as §1, §2, §3, §4, §5
Data set [5] deals with TH1 and TH9 CD4+ T cell populations. Put plainly: On-plate bacterial antigen stimulation of differentiated CD4+ T cell subsets (cytokines, IL-9 activation factors). Format: cell-based, human. The source says:
In this example, a TH1 cell population was produced from a population of CD4+ T cells obtained from a sample of PBMCs. This population of CD4+ T cells were co-stimulated with soluble CD3 and CD28 antibodies without added cytokine stimulation for inducing differentiation of TH1 cells. Unlike the co-stimulation with soluble CD3 and CD28 antibodies in the presence of TGFB, IL-4, and IFNg cytokines for inducing differentiation of TH9 cells as described herein.
Thus, in this example, purified CD4+ T cell populations were plated into tissue culture plates for activation and differentiation into one selected T cell subtype, e.g. Th1 in one plate, and Th2 in another plate.
A sample of each TH cell type was exposed to PAM2CSK4, then log 2 fold changes in protein expression of either pathway molecules or IL-9 were measured and compared to duplicate samples not treated with PAM2CSK4.

In data set [6] the test system is resident immune cells from healthy and UC patient LP tissue. As to the kind of experiment: Secreted cytokine production of resident immune cells cultured on plates, 24 hour bacterial challenge. It is filed as cell-based, human. Conditions: immune cells from inflamed UC tissue.
Data set [7] concerns microfluidic co-cultures of Caco-2 epithelial cells, HUVECs and LPDCs. Put plainly: Gut-On-Chip cytokine and chemokine production in co-cultures with lamina propria-derived cells. It is filed as cell-based, human. This is another data set of the same source.
Where [8] appears, read: Prednisone alone, non-inflamed LPDC cultures.
Setting [9] is: prednisone, inflamed LPDCs, with and without PAM2CSK4.
Setting [10] is: prednisone, non-inflamed and inflamed LPDCs treated with PAM2CSK4.

Source text for Caco-2 epithelial layer: The chips treated with PAM2CSK4 as a model bacterial antigen are considered infected chips.

For `C[C@]12C=CC(=O)C=C1CC[C@@H]1[C@@H]2C(=O)C[C@@]2(C)[C@H]1CC[C@]2(O)C(=O)CO` [prednisone], the “Permeability (Papp)” value in [1] (FIG. 17A, prednisone, at least one patient sample of non-inflamed LPDCs) is “some benefit in reducing permeability”; in data set [1] (FIG. 17A, prednisone, at least one patient sample with inflamed UC LPDC) it was “undesirable increase”; in [1] (FIG. 17B, overnight, prednisone, inflamed UC LPDCs), “did not induce an increase in permeability”; in data set [1] (FIG. 17B, overnight, prednisone, non-inflamed UC LPDC) it was “undesirable increase in permeability”; in data set [1] (overnight, prednisone, inflamed UC LPDC samples), “both an increase and a decrease in permeability”; in data set [1] (prednisone and PAM2CSK4, inflamed UC LPDC), “little benefit”. In data set [1] (prednisone and PAM2CSK4, non-inflamed UC LPDC), the “Permeability (Papp)” value is “range of responses”. For the same compound, the “Permeability (Papp), trend” value in [1] (prednisone and bacterial antigen) is “trend for decreasing permeability”; in data set [1] (prednisone, inflamed UC LPDC), “little difference from the non-inflamed LPDC sample”; in data set [1] (prednisone, non-inflamed UC LPDC), “increased permeability”. For the same compound, the “Permeability (Papp), effect on average” value in data set [1] (prednisone, non-inflamed or inflamed UC LPDC) is given as “no significant effect”. Also, the PDGF-AA/BB production entry in [2] (Prednisone alone) was “did not appear to be a reduction in PDGF-AA/BB”; in data set [2] (prednisone, non-inflamed LPDCs), “trend for reducing PDGF-AA/BB production”; in [2] (setting [10]), “trend for reducing PDGF-AA/BB production”. Moreover, the figures for the GM-CSF production entry in [2] (setting [8]) and in data set [2] (setting [9]) were “did not appear to be a reduction in GM-CSF” and “reduced GM-CSF production”, respectively. Besides, the MCP-1 production entry in data set [2] (setting [8]) is listed as “did not appear to be a reduction in MCP-1”; in [2] (setting [9]), “reduced MCP-1 production”. Besides, the IL-8 production result in data set [2] (non-inflamed LPDC cultures, Prednisone alone or PAM2CSK4) is recorded as “did not appear to be a reduction in IL-8”; in data set [2] (setting [9]) it was “trend for reducing IL-8 production”. Moreover, the IL-9 production result in data set [2] (prednisone on PAM2CSK4-increased IL-9) was “significantly reduced”; in [2] (prednisone, non-inflamed and inflamed UC LPDC, regardless of PAM2CSK4), “reduced”. In addition, the IL-6 production result is “reduce IL-6 production” in data set [2] (prednisone, inflamed LPDCs, endogenous or induced by PAM2CSK4) and “does not appear to have an effect” in data set [2] (prednisone, non-inflamed LPDCs). Besides, the RANTES production result in data set [2] (setting [10]) is recorded as “trend for reducing RANTES production”. In data set [2] (prednisone, non-inflamed or inflamed LPDCs, with and without PAM2CSK4), the G-CSF production result is on record as “trend for reducing G-CSF production”. Besides, the “Inflammatory responses (secreted cytokine production) to PAM2CSK4 treatment” value in data set [2] (prophylactic prednisone, UC patient's resident immune cells, noninflamed and inflamed tissues) was “suppresses the inflammatory responses”. In the data set on Ulcerative Colitis, the treated patients non-responsive entry is given as “around 16%”. In addition, the “treated patients with full remission” value in the data set with Ulcerative Colitis is listed as about 54%. Besides, the “treated patients with partial remission” value with Ulcerative Colitis is recorded as about 30%.
Turning to Tofacitinib (citrate), the IL-10 secretion result in data set [3] (mixture of PAM2CSK4 and Tofacitinib vs unstimulated) is recorded as “induced significant amounts”.
For the compound PAM2CSK4, the “Loss of barrier function” value in [1] (4 LP mil/ml) is recorded as “Loss of barrier function is shown”; in data set [1] (LP 1 mil/ml or LP 2 mil/ml), “not at LP 1 mil/ml or LP 2 mil/ml”. Also, the “Permeability (Papp)” value in data set [4] is recorded as “show an increase in permeability”. For the same compound, the “GATA3 and SPI1 (log 2 fold change)” value in data set [5] (PAM2CSK4, TH1 populations) is recorded as “not GATA3 car SPI11”. For the same compound, the “IL-9 mRNA concentrations” value in data set [5] (PAM2CSK4, TH1 populations) was “did significantly increase”. For the same compound, the “IRF4 and IL-9 (log 2 fold change)” value in data set [5] (PAM2CSK4, TH1 populations) is “produce measurable IRF4 and IL-9”. Besides, in data set [5] (PAM2CSK4, TH9 populations in tissue culture plate), the “IL-9 and IL-9 activation factors (log 2 fold changes)” value was “did not significantly increase IL-9”. Besides, the “Cytokine protein expression post differentiation” value in data set [5] (soluble PAM2CSK4, TH1 (CD) and TH9 (UC) cells on-plates) was “increases in the concentration of protein signaling”. Also, in data set [3] (Pam stimulated vs unstimulated), the IL-10 secretion result is reported as “no insignificant differences”. Further, the IL-8 entry in [3] (antigen specific stimulation (TLR2 agonist) on activated TH1 and TH9 chips) is “increased”. Besides, the “Response to TLR2 activation (secreted TNF alpha, IL-6, IL-8)” value in data set [6] is reported as “stronger response”. The IL-6 production entry in data set [2] (1, 2 and 4 LP mil/ml, versus co-cultures with no PAM2CSK4) is recorded as “induced a higher level of IL-6 production”; in [2] (PAM2CSK4, inflamed LPDC samples), “increased IL-6 production”; in data set [2] (PAM2CSK4, non-inflamed LPDC samples), “not with the non-inflamed LPDC samples”; in data set [2] (healthy LP leukocyte co-cultures and epithelial cells without LP), “induce an IL6 response”. Further, the IL-9 production result in data set [2] (LP leukocyte co-cultures for each source (healthy, UC non-inflamed, UC inflamed)) is “induce IL-9”; in [2] (PAM2CSK4, non-inflamed and inflamed LPDC co-cultures, over endogenous levels), “significantly induced IL-9 production”; in data set [2] (epithelial cells without LP cells), “not in epithelial cells without LP cells”. Moreover, the “Apical IL-9 cytokine secretion” value in data set [2] (apical regions, 4 LP mil/ml) was “not at 4 LP mil/ml”; in data set [7] (apical regions, 1 and 2 LP mil/ml), “increased with PAM2CSK4 treatment”. For the same compound, the “Basal IL-9 cytokine secretion” value in [7] (4 LP mil/ml, basal areas) is reported as “induced a higher level of IL-9 production”. Also, in the data set on Caco-2 epithelial layer, the “Avg. Z Height of Caco-2 epithelial layer” value turned out to be 84 um+/−11.
